≈ marks a conversion by molar mass, not a printed value. Where a name gives a salt, the structure may show the parent alone. Read-outs that look alike come from different tables or passages of the source.
Legend:
[1] = Stability evaluation in aqueous buffer; assay type: physicochemical; details: about 50 μg/mL, about 15% v/v acetonitrile; for half-life: aqueous buffer, 37° C.
Protocol: The stability study of an individual prodrug was conducted with about 50 μg/mL solutions in aqueous buffers of pH 1 (0.1 M HCl), 4 (acetate buffer) and 6.5 (phosphate buffer) at 37° C. for 24 hours. About 15% v/v acetonitrile was used in these pH buffers as a co-solvent to obtain clear solutions of prodrugs. The sample analysis was carried out using a generic reversed phase liquid chromatographic (LC) method with UV detection. The area percent (AP) loss of the prodrug peak was quantified as a function of time. The appearance of parent peak was identified from the chromatographic retention time. The half-life (t1/2, h) of the prodrug was calculated by using a pseudo-first order equation from a AP loss vs time plot.

[2] = Solubility evaluation in aqueous buffer; assay type: physicochemical; details: for solubility: aqueous buffer, 25 °C, thermodynamic from solid
Protocol: The solid powder of an individual prodrug was equilibrated in aqueous buffers of pH 1, 4 and 6.5 at 25° C. for about 24 hours. After equilibration, the excess solid was separated by filtration using 0.45 μm membrane filter and the filtrate was collected in suitable glass vial. The filtrate was diluted appropriately using respective buffers/diluent and analyzed by a reversed phase LC method with UV detection.

[3] = pH 1, pH 1 (0.1 M HCl), read-out: Stability (t1/2, h) at 37° C. pH 1 (converted)
[4] = pH 4, pH 4 (acetate buffer), read-out: Stability (t1/2, h) at 37° C. pH 4 (converted)
[5] = pH 6.5, pH 6.5 (phosphate buffer), read-out: Stability (t1/2, h) at 37° C. pH 6.5 (converted)
[6] = aqueous buffer pH 4, 25° C., about 24 hours equilibration, ditrifluoroacetate
[7] = aqueous buffer pH 6.5, 25° C., about 24 hours equilibration, ditrifluoroacetate
[8] = pH 1, simulated gastric fluid, aqueous buffer pH 1, 25° C., about 24 hours equilibration, read-out: Solubility (mg/mL) at 25° C. pH 1
[9] = pH 4, aqueous buffer, aqueous buffer pH 4, 25° C., about 24 hours equilibration, read-out: Solubility (mg/mL) at 25° C. pH 4
[10] = pH 6.5, aqueous buffer, aqueous buffer pH 6.5, 25° C., about 24 hours equilibration, read-out: Solubility (mg/mL) at 25° C. pH 6.5

half-life [1, 3] [h]	half-life [1, 4] [h]	half-life [1, 5] [h]	Solubility (mg/mL) at 25° C. pH 4 [2, 6] [mg/mL]	Solubility (mg/mL) at 25° C. pH 6.5 [2, 7] [mg/mL]	solubility [2, 8] [mg/mL]	Stability (t1/2, h) at 37° C. pH 1 ([1]; pH 1 (0.1 M HCl)) [h]	Stability (t1/2, h) at 37° C. pH 4 ([1]; pH 4 (acetate buffer), ditrifluoroacetate) [h]	Stability (t1/2, h) at 37° C. pH 6.5 ([1]; pH 6.5 (phosphate buffer), ditrifluoroacetate) [h]	Solubility (mg/mL) at 25° C. pH 1 ([2]; aqueous buffer pH 1, 25° C., about 24 hours equilibration, ditrifluoroacetate) [mg/mL]	solubility [2, 9] [mg/mL]	solubility [2, 10] [mg/mL]	Structure (SMILES)	pH dependence of aqueous solubility ([2]; pH of 1 versus pH of 4 or pH of 6)
> 500	415	108	0.52	>1.22	> 1.32							Cc1c(-c2c(C(C)C)c3cc(C4CCN(CC(N)=O)CC4)ccc3n2C(=O)OC(C)OC(=O)C2(N)CC2)cn2ncnc2c1C (single isomer, unassigned) [Example 6, 1-((1-Aminocyclopropane-1-carbonyl)oxy)ethyl 5-(1-(2-amino-2-oxoethyl)piperidin-4-yl)-2-(7,8-dimethyl-[1,2,4]triazolo[1,5-a]pyridin-6-yl)-3-isopropyl-1H-indole-1-carboxylate ditrifluoroacetate]	
			>1.21	0.34		>500	>500	193	>1.49			Cc1c(-c2c(C(C)C)c3cc(C4CCN(CC(N)=O)CC4)ccc3n2C(=O)OC(C)OC(=O)C2(N)CC2)cn2ncnc2c1C (single isomer, unassigned) [Example 7, 1-((1-Aminocyclopropane-1-carbonyl)oxy)ethyl 5-(1-(2-amino-2-oxoethyl)piperidin-4-yl)-2-(7,8-dimethyl-[1,2,4]triazolo[1,5-a]pyridin-6-yl)-3-isopropyl-1H-indole-1-carboxylate ditrifluoroacetate]	
> 500	> 500	> 500			> 1.16					> 1.87	> 2.08	Cc1c(-c2[nH]c3ccc(C4CC[N+](COC(=O)N(C)CCOP(=O)(O)O)(CC(N)=O)CC4)cc3c2C(C)C)cn2ncnc2c1C (single isomer, unassigned) [Example 20, 1-(2-Amino-2-oxoethyl)-4-(2-(7,8-dimethyl-[1,2,4]triazolo[1,5-a]pyridin-6-yl)-3-isopropyl-1H-indol-5-yl)-1-(((methyl(2-(phosphonooxy)ethyl)carbamoyl)oxy)methyl) piperidin-1-ium trifluoroacetate]	
> 500	> 500	> 500			> 1.75					0.25	0.55	Cc1c(-c2[nH]c3ccc(C4CCN(CC(N)=O)CC4)cc3c2C(C)C)cn2nc[n+](COC(=O)N(C)CCOP(=O)(O)O)c2c1C (single isomer, unassigned) [Example 21, 6-(5-(1-(2-amino-2-oxoethyl)piperidin-4-yl)-3-isopropyl-1H-indol-2-yl)-7,8-dimethyl-1-(((methyl(2-(phosphonooxy)ethyl)carbamoyl)oxy)methyl)-[1,2,4]triazolo[1,5-a]pyridin-1-ium trifluoroacetate]	
					1.56 (≈ 3510 µM)					0.05 (≈ 112 µM)	< 0.01	Cc1c(-c2[nH]c3ccc(C4CCN(CC(N)=O)CC4)cc3c2C(C)C)cn2ncnc2c1C [Compound A, 2-(4-(2-(7,8-dimethyl-[1,2,4]triazolo[1,5-a]pyridin-6-yl)-3-isopropyl-1H-indol-5-yl)piperidin-1-yl)acetamide, reference compound]	higher solubility at pH of 1 than at pH of 4 or pH of 6
> 500	> 500	218			> 1.74					> 1.28	> 1.34	Cc1c(-c2c(C(C)C)c3cc(C4CCN(CC(N)=O)CC4)ccc3n2C(=O)OC[C@@H]2CCCCN2)cn2ncnc2c1C [Example 1, (S)-Piperidin-2-ylmethyl 5-(1-(2-amino-2-oxoethyl)piperidin-4-yl)-2-(7,8-dimethyl-[1,2,4]triazolo[1,5-a]pyridin-6-yl)-3-isopropyl-1H-indole-1-carboxylate]	
248	283	267			> 1.17					0.24 (≈ 324 µM)	0.43 (≈ 581 µM)	Cc1c(-c2c(C(C)C)c3cc(C4CCN(CC(N)=O)CC4)ccc3n2C(=O)OC[C@@H]2CCCCN2C(=O)OCOP(=O)(O)O)cn2ncnc2c1C [Example 2, (S)-(1-(((Phosphonooxy)methoxy)carbonyl)piperidin-2-yl)methyl 5-(1-(2-amino-2-oxoethyl)piperidin-4-yl)-2-(7,8-dimethyl-[1,2,4]triazolo[1,5-a]pyridin-6-yl)-3-isopropyl-1H-indole-1-carboxylate]	
> 500	> 500	99			> 2.43					> 2.68	> 2.44	Cc1c(-c2c(C(C)C)c3cc(C4CCN(CC(N)=O)CC4)ccc3n2C(=O)OC[C@@H]2CCCN2)cn2ncnc2c1C [Example 3, (S)-Pyrrolidin-2-ylmethyl 5-(1-(2-amino-2-oxoethyl)piperidin-4-yl)-2-(7,8-dimethyl-[1,2,4]triazolo[1,5-a]pyridin-6-yl)-3-isopropyl-1H-indole-1-carboxylate]	
231	257	231			> 1.64					0.91 (≈ 1250 µM)	0.66 (≈ 909 µM)	Cc1c(-c2c(C(C)C)c3cc(C4CCN(CC(N)=O)CC4)ccc3n2C(=O)OC[C@@H]2CCCN2C(=O)OCOP(=O)(O)O)cn2ncnc2c1C [Example 4, (S)-(1-(((Phosphonooxy)methoxy)carbonyl)pyrrolidin-2-yl)methyl 5-(1-(2-amino-2-oxoethyl)piperidin-4-yl)-2-(7,8-dimethyl-[1,2,4]triazolo[1,5-a]pyridin-6-yl)-3-isopropyl-1H-indole-1-carboxylate]	
> 500	99	1.6										CNCC(=O)OCc1cccnc1N(C)C(=O)OC[N+]1(CC(N)=O)CCC(c2ccc3[nH]c(-c4cn5ncnc5c(C)c4C)c(C(C)C)c3c2)CC1 (stereo not shown) [Example 12, 1-(2-Amino-2-oxoethyl)-4-(2-(7,8-dimethyl-[1,2,4]triazolo[1,5-a]pyridin-6-yl)-3-isopropyl-1H-indol-5-yl)-1-(((methyl(3-(((methylglycyl)oxy)methyl)pyridin-2-yl)carbamoyl)oxy)methyl)piperidin-1-ium ditrifluoroacetate]	
459	99	2.5										CNCC(=O)OCc1cccnc1N(C)C(=O)OC[n+]1cnn2cc(-c3[nH]c4ccc(C5CCN(CC(N)=O)CC5)cc4c3C(C)C)c(C)c(C)c21 [Example 13, 6-(5-(1-(2-Amino-2-oxoethyl)piperidin-4-yl)-3-isopropyl-1H-indol-2-yl)-7,8-dimethyl-1-(((methyl(3-(((methylglycyl)oxy)methyl)pyridin-2-yl)carbamoyl)oxy)methyl)-[1,2,4]triazolo[1,5-a]pyridin-1-ium tritrifluoroacetate]	
80	7.5	0.1										Cc1c(-c2c(C(C)C)c3cc(C4CCN(CC(N)=O)CC4)ccc3n2C(=O)OCOP(=O)(O)O)cn2ncnc2c1C [Example 16, (Phosphonooxy)methyl 5-(1-(2-amino-2-oxoethyl)piperidin-4-yl)-2-(7,8-dimethyl-[1,2,4]triazolo[1,5-a]pyridin-6-yl)-3-isopropyl-1H-indole-1-carboxylate]	
6.4	2.9	6.3										Cc1c(-c2c(C(C)C)c3cc(C4CCN(CC(N)=O)CC4)ccc3n2P(=O)(O)O)cn2ncnc2c1C [Example 18, (5-(1-(2-Amino-2-oxoethyl)piperidin-4-yl)-2-(7,8-dimethyl-[1,2,4]triazolo[1,5-a]pyridin-6-yl)-3-isopropyl-1H-indol-1-yl)phosphonate]	

— US20220213099A1, “PRODRUG COMPOUNDS” (BRISTOL-MYERS SQUIBB COMPANY, priority 2019, published 2022)
